Structures can show the parent of a compound that is named as a salt. Where two headings read alike, the source gives them in different places.
Assays:
CO2 receptor neuron [1] = assay: Amines: inhibition of CO2 receptor neuron activity; format: cell-based; parameters: % Inhibition: concentration or dose not given beside the values; details: for Average % Inhibition: dose response
cpA neuron [2] = assay: Single-sensillum recording: activation of cpA neuron by odorants; format: cell-based, Aedes aegypti; details: for Activation (spikes s^−1): A. aegypti cpA, 0.5-s pulses, odorants 10^−2 in paraffin oil or water, solvent response subtracted; for Activation (spikes s−1): cpA neuron, 20 compounds from the top 200 SVM ligand predictions, negative values = inhibition, N = 4
Method: FIG. 3b depicts representative traces and mean responses of the A. aegypti cpA neuron to 0.5-s pulses of 138 predicted compounds screened using single-sensillum recordings, in which odorants were diluted to 10^−2 in paraffin oil or water, and responses to solvent have been subtracted, n=2-6, and error bars are s.d.
FIG. 5f is a bar graph illustrating the mean responses of the A. aegypti cpA neuron to 0.5-s pulses of 22 newly predicted compounds screened as in FIG. 3b, where salmon bars correspond to odorants found in human odor, odorants were diluted to 10^−2 in paraffin oil or water, and responses to solvent have been subtracted, and n=2-5.
Adult female A. aegypti (Linnaeus 1762) (Rockefeller strain) A. gambiae sensu stricto Giles 1902 (G3 strain), or C. quinquefasciatus Say 1823 were tested 3-12 days post-emergence with single-sensillum extracellular recordings. Chemicals were obtained from Sigma-Aldrich at the highest purity (typically >99%) and were dissolved in paraffin oil or water. […] Response to clean beads was subtracted from the results reported. Only sensilla with cpA activity of <20 spikes s^−1 to negative control were considered for analysis.
(§1) CpA-off and sham treated mosquitoes were pre-treated for 3 min in an upended 1 L glass dish in which 100 μl of fresh butyryl chloride (1%) or paraffin oil was allowed to vaporize for 10-20 min. The odor delivery system for different screens is shown in FIG. 7b; solvent responses during the same recording session were subtracted. Inhibition screen was tested. For the ultra-prolonged activator the 3-s stimulus was delivered from a 10 ml disposable pipette using a CS-55 stimulus controller (Syntech), CO2 was delivered, and responses to subsequent odor stimuli were calculated by subtracting baseline activity 1 s prior to each stimulus. When responses to repeated pulses of cyclopentanone and CO2 were compared, baseline activity between seconds 5 and 6 following each stimulus was subtracted. Spike counting was done manually or with Igor Pro6.2 (Wavemetrics) with the Neuromatic v2.00 macro (by Jason Rothman), and peak-to-peak spike amplitudes for FIG. 8 were analysed in Clampfit 10.3 (Molecular Devices).
From the large list of cpA receptor ligands predicted from Example 3 above, 138 compounds were selected based on desirable criteria for application such as smell, presence in natural sources, human safety profile, and cost to procure. These compounds were tested individually using single-sensillum electrophysiology on the cp sensillum of female A. aegypti, according to the procedure described in Example 1 above.

cpA neuron [3] = assay: Inhibition screen: odorant overlaid on 0.15% CO2 stimulus, cpA response; format: cell-based, Aedes aegypti; details: for % Inhibition: 1-s odorant stimulus (10^−2) in the middle of a 3-s 0.15% CO2 stimulus, vs solvent overlay
Method: Percent inhibition was calculated by comparing mean odorant overlay responses to mean solvent overlay responses, and error bars are s.d.
as §1

C. quinquefasciatus = assay: Semi-field two-choice greenhouse trapping; format: in vivo, Culex quinquefasciatus; details: 10% lactic acid bait
Description: FIG. 4g is a schematic of two-choice greenhouse experiments with two counterflow geometry traps, in which mosquitoes were trapped overnight in odorant-baited and solvent (water)-baited traps.
Semi-field trapping: Two modified greenhouses at the Agricultural Experiment Station at the University of California, Riverside, were used as described previously^2, with modifications. Fifty laboratory-reared, mated, non-blood fed female C. quinquefasciatus aged 8-14 days and starved for 24 hrs were released each evening around 5 pm and traps collected at ˜7 am. Counter flow geometry traps baited with CO2 (250 ml min^−1, ˜670 mmol/hr) odorant were used as described^2, with modifications. Odorant solutions in water were dispensed from 20 cm long gauze wicks protruding from uncapped 50 ml tubes beneath the trap outflow. For each trial, one baited trap and one control trap (water-filled) were placed in each of two greenhouses (FIG. 4g). For two-choice CO2 trials, water was placed under both traps. For two-choice ethyl pyruvate trials, both traps expelled CO2, and one trap also released ethyl pyruvate from an open 2.8×7 cm glass vial. Since ethyl pyruvate has very low volatility pure compound was used to generate ˜1.7 mmol/hr. An empty vial was placed under control traps. Treatment position and trap were alternated across trials. Volume of solution lost from tubes containing 5%, 10%, or 20% cyclopentanone were measured after each trial and the average loss of molecules calculated respectively for 3 concentrations as (±s.d.) of 0.7 (±0.1), 1.7 (±0.4), and 3.8 (±0.3) mmol/hr, respectively. Preference index=(# mosquitoes in odor-baited trap−# mosquitoes in control trap)/(total # mosquitoes caught in both traps).
The efficacy of cyclopentanone as a lure was tested using traps in controlled semi-field experiments with C. quinquefasciatus, a mosquito present in Southern California, where the experiments took place. 50 female mosquitoes were released overnight in a modified greenhouse that contained two counter-flow geometry mosquito traps (FIG. 4g). One trap was baited with an evaporative lure of cyclopentanone diluted in water, and the second trap was baited with water alone.

cpA neuron [4] = assay: Ultra-prolonged activation: cpA firing after 3-s odorant exposure; format: cell-based, Aedes aegypti
Description: FIG. 3d depicts representative traces from the A. aegypti cp sensillum to 1-s pulses of 0.15% CO2 prior to and following a 3-s exposure to either solvent (paraffin oil) or (E)-2-methylbut-2-enal (10^−1).
FIG. 3e is a graph illustrating the cpA baseline activity in the 1 s prior to each stimulus is elevated following exposure to odorant, where error bars are s.e.m.
FIG. 3f is a bar graph illustrating the mean responses of the cpA neuron to 1-s pulses of 0.15% CO2, calculated by subtracting the 1 s of the baseline activity prior to each stimulus, where n=5-6 individuals, analysed by t-test, ***p<0.001, and error bars are s.e.m.
as §1

CO2 receptor = details: cited from earlier work
CO2 receptor neuron [5] = assay: Activity of CO2 receptor neuron during spermidine and spermine stimulus windows; format: cell-based; details: CO2 receptor neuron activity during stimulus window
Method: The polyamines were diluted 0.001 to 10% in paraffin oil (PO). Also shown in Table 7 are the activity values of the CO2 receptor neuron during the spermidine and spermine stimulus windows (error bars=s.e.m.).

[6] = inhibition of CO2 receptor neuron activity by amines

NCCCNCCCCNCCCN
% Inhibition (CO2 receptor neuron [1]): 94.81%

2-ethyl-5(6)-methylpyrazine
Activation (spikes s^−1) (cpA neuron [2]): 14.0 spikes s^−1
% Inhibition (cpA neuron [3]): −2.0%

CN1CCCC1 [1-methylpyrrolidine]
% Inhibition (CO2 receptor neuron [1]; [6]): 100%

c1cn[nH]c1 [1H-pyrazole]
Activation (spikes s^−1) (cpA neuron [2]): 3.5 spikes s^−1
% Inhibition (cpA neuron [3]): 4.9%

CC(O)C(=O)O (centres unmarked) [2-hydroxypropanoic acid]
Activation (spikes s^−1) (cpA neuron [2]): −1.0 spikes s^−1
catch vs control traps (C. quinquefasciatus): did not catch significantly more mosquitoes

CC(C)C=O [2-methylpropanal]
Activation (spikes s^−1) (cpA neuron [2]): 29.0 spikes s^−1
% Inhibition (cpA neuron [3]): 5.8%

CC(C)CS [2-methylpropane-1-thiol]
Activation (spikes s^−1) (cpA neuron [2]): 37.0 spikes s^−1
% Inhibition (cpA neuron [3]): −2.9%

CC(=O)C=O [2-oxopropanal]
Activation (spikes s^−1) (cpA neuron [2]): −2.0 spikes s^−1
% Inhibition (cpA neuron [3]): −33.6%

C/C=C(\C)C=O [(E)-2-methylbut-2-enal]
Activation (spikes s^−1) (cpA neuron [2]): 59.5 spikes s^−1
duration of sustained firing of cpA (cpA neuron [4]; after 3-s exposure): at least 5.5 min
sustained firing of cpA (cpA neuron [4]; after 3-s exposure (10^−1)): ~45 spikes s^−1
cpA responses to 1-s pulses of 0.15% CO2 relative to controls (cpA neuron [4]; during sustained firing period): significantly reduced

NCCCCNCCCN [N-(3-aminopropyl)-1,4-butanediamine]
% Inhibition (CO2 receptor neuron [1]; [6]): 92.25%

CNC [N-methylmethanamine]
% Inhibition (CO2 receptor neuron [1]): 100%

CCCC(=O)O [butanoic acid]
inhibition of the CO2 receptor (CO2 receptor): strongest known inhibitors

CCCC=O [butyraldehyde]
inhibition of the CO2 receptor (CO2 receptor): strongest known inhibitors

CCCCCCN [hexan-1-amine]
% Inhibition (CO2 receptor neuron [1]; [6]): 86.61%

COC(=O)C(C)=O [methyl 2-oxopropanoate]
fold lower concentration for comparable inhibition vs previously reported inhibitors such as 1-hexanol (cpA neuron [3]): ~10 times
inhibition of cpA activity (cpA neuron [3]; overlaid on 0.15% CO2): strongly inhibited

CCCCCN [pentan-1-amine]
% Inhibition (CO2 receptor neuron [1]; [6]): 100%

CC(C)O [propan-2-ol]
Activation (spikes s−1) (cpA neuron [2]): 25.3 spikes s−1

CC(C)OC(=O)c1ccccc1 [propan-2-yl benzoate]
Activation (spikes s^−1) (cpA neuron [2]): 6.0 spikes s^−1

CC(C)OC=O [propan-2-yl formate]
Activation (spikes s−1) (cpA neuron [2]): 63.8 spikes s−1

CCC=O [propanal]
Activation (spikes s−1) (cpA neuron [2]): −33.8 spikes s−1

CCCS [propane-1-thiol]
Activation (spikes s^−1) (cpA neuron [2]): 75.0 spikes s^−1

CCCOC(C)=O [propyl acetate]
Activation (spikes s^−1) (cpA neuron [2]): 52.6 spikes s^−1

CCCOC=O [propyl formate]
Activation (spikes s^−1) (cpA neuron [2]): 58.0 spikes s^−1

c1ccnnc1 [pyridazine]
Activation (spikes s^−1) (cpA neuron [2]): 2.5 spikes s^−1

O=C1CCCN1 [pyrrolidin-2-one]
Activation (spikes s^−1) (cpA neuron [2]): 0.0 spikes s^−1

NCCCCNCCCN [spermidine]
Ave. Activity (CO2 receptor neuron [5]; 0.001% in paraffin oil): 62.3
Ave. Activity (CO2 receptor neuron [5]; 0.01% in paraffin oil): 55.3
Ave. Activity (CO2 receptor neuron [5]; 0.1% in paraffin oil): 10.0
Ave. Activity (CO2 receptor neuron [5]; 1% in paraffin oil): 5.3
Ave. Activity (CO2 receptor neuron [5]; 10% in paraffin oil): 6.0
Average % Inhibition (CO2 receptor neuron [1]; 0.001% in paraffin oil): −1.0%
Average % Inhibition (CO2 receptor neuron [1]; 0.01% in paraffin oil): 10.6%
Average % Inhibition (CO2 receptor neuron [1]; 0.1% in paraffin oil): 85.1%
Average % Inhibition (CO2 receptor neuron [1]; 1% in paraffin oil): 92.2%
Average % Inhibition (CO2 receptor neuron [1]; 10% in paraffin oil): 91.3%

NCCCNCCCCNCCCN [spermine]
Ave. Activity (CO2 receptor neuron [5]; 0.001% in paraffin oil): 52.0
Ave. Activity (CO2 receptor neuron [5]; 0.01% in paraffin oil): 52.3
Ave. Activity (CO2 receptor neuron [5]; 0.1% in paraffin oil): 14.0
Ave. Activity (CO2 receptor neuron [5]; 1% in paraffin oil): 2.7
Ave. Activity (CO2 receptor neuron [5]; 10% in paraffin oil): 2.3
Average % Inhibition (CO2 receptor neuron [1]; 0.001% in paraffin oil): −5.6%
Average % Inhibition (CO2 receptor neuron [1]; 0.01% in paraffin oil): −3.2%
Average % Inhibition (CO2 receptor neuron [1]; 0.1% in paraffin oil): 76.5%
Average % Inhibition (CO2 receptor neuron [1]; 1% in paraffin oil): 94.8%
Average % Inhibition (CO2 receptor neuron [1]; 10% in paraffin oil): 95.1%

Sc1cccs1 [thiophene-2-thiol]
Activation (spikes s−1) (cpA neuron [2]): −35.5 spikes s−1
